Experimental data reported in publication PMC6199744, “Development of Chemical Proteomics for the Folateome and Analysis of the Kinetoplastid Folateome” (ACS Infectious Diseases, 2018).
Read-outs that look alike come from different tables or passages of the source.

Assays:
Type in all cases: binding
[1] = target: T1, HeLa cell extract proteins (Homo sapiens, UniProt O00330)
T1 construct: endogenous in cells; host or cells: HeLa cell extract
T1 sequence (O00330 54-501): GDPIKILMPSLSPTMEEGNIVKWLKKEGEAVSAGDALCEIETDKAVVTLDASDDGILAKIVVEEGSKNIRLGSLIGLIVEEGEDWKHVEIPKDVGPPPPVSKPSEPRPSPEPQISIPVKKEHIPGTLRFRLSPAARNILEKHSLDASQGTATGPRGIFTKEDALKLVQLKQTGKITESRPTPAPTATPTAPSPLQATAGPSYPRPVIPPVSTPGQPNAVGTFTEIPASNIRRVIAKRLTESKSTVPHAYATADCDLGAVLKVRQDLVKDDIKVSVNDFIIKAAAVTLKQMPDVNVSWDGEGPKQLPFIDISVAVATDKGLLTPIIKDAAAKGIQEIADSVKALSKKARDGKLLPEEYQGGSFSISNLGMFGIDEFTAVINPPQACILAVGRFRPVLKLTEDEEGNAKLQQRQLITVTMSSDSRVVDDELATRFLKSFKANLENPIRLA

[2] = target: T2, HeLa cell extract proteins (Homo sapiens, UniProt P25705)
T2 construct: endogenous in cells; host or cells: HeLa cell extract

[3] = target: T3, HeLa cell extract proteins (Homo sapiens, UniProt P37837)
T3 construct: endogenous in cells; host or cells: HeLa cell extract
T3 sequence (P37837 1-337): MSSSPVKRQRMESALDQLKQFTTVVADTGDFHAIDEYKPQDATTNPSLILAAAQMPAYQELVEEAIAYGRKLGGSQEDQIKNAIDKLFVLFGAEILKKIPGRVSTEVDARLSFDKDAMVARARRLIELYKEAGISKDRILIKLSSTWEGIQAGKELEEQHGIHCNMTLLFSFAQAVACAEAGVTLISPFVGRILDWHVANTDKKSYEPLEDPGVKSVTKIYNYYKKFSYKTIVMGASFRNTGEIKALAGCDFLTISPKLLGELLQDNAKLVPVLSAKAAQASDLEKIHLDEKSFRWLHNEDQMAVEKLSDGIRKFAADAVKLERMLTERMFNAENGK

[4] = target: T4, HeLa cell extract proteins (Homo sapiens, UniProt P49720)
T4 construct: endogenous in cells; host or cells: HeLa cell extract
T4 sequence (P49720 1-205): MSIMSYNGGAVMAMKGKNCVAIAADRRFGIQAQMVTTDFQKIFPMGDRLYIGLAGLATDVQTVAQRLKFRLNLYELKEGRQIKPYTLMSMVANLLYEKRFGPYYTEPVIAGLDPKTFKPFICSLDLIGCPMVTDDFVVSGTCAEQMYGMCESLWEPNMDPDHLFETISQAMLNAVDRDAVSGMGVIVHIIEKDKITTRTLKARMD

[5] = target: T5, HeLa cell extract proteins (Homo sapiens, UniProt P60709)
T5 construct: endogenous in cells; host or cells: HeLa cell extract

[6] = target: T6, HeLa cell extract proteins (Homo sapiens, UniProt P60900)
T6 construct: endogenous in cells; host or cells: HeLa cell extract

[7] = target: T7, HeLa cell extract proteins (Homo sapiens, UniProt Q14247)
T7 construct: endogenous in cells; host or cells: HeLa cell extract
T7 sequence (Q14247 1-550): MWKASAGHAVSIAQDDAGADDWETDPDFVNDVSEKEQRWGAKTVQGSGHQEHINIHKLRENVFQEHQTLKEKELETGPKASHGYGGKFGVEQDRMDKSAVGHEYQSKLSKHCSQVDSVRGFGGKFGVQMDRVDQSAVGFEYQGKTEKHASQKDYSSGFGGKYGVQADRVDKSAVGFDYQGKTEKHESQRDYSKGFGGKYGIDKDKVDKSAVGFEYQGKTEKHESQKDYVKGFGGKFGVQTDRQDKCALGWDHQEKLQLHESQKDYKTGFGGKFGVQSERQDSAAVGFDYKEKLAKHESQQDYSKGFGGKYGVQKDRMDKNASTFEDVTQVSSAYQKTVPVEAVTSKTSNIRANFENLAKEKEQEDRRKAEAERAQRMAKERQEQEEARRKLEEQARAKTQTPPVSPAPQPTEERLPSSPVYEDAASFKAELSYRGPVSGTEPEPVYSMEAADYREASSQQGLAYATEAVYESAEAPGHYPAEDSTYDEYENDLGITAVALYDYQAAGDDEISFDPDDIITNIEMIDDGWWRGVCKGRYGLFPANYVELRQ

[8] = target: T8, HeLa cell extract proteins (Homo sapiens, UniProt Q99497)
T8 construct: endogenous in cells; host or cells: HeLa cell extract
T8 sequence (Q99497 1-189): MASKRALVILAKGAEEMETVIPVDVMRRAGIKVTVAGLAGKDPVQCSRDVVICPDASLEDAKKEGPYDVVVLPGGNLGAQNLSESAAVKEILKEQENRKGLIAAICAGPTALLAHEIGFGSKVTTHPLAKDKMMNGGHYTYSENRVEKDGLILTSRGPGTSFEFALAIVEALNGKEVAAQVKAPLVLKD

[9] = target: T9, HeLa cell extract proteins (Homo sapiens, UniProt Q9UJP4)
T9 construct: endogenous in cells; host or cells: HeLa cell extract
T9 sequence (Q9UJP4 1-597): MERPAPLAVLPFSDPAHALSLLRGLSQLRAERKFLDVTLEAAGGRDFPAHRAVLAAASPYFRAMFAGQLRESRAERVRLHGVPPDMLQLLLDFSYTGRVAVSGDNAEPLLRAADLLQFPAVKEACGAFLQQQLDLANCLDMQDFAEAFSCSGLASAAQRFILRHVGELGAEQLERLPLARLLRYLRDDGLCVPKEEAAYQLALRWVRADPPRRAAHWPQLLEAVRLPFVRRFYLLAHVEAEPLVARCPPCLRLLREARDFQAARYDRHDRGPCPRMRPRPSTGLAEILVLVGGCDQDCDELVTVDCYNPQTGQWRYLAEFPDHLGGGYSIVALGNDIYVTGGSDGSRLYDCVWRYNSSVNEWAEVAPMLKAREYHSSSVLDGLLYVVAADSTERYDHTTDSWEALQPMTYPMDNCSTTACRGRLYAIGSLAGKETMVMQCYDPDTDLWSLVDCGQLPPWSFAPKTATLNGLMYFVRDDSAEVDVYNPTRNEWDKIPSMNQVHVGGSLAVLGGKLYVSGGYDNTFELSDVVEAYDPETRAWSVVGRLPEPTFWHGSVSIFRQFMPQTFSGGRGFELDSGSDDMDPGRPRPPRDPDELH

[10] = HeLa, protein TALDO1 (TRANSALDOLASE.)
[11] = HeLa, protein DJ-1 (PROTEIN DJ-1.)
[12] = HeLa, protein PDHX (PYRUVATE DEH[…] X COMPONENT, MIT[…])

T2 sequence (P25705 44-553): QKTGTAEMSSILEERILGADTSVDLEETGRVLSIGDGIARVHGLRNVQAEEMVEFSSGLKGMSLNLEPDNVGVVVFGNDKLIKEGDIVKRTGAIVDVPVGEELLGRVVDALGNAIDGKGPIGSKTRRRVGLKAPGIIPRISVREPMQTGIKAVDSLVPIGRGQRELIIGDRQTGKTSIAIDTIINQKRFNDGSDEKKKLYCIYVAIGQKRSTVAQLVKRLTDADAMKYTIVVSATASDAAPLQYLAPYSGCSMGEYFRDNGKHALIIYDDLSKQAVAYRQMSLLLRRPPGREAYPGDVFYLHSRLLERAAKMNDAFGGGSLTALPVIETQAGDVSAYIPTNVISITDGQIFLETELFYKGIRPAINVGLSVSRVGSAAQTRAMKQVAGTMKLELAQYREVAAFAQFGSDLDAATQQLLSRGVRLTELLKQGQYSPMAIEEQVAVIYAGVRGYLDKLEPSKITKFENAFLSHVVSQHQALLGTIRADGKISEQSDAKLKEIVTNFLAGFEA
T6 sequence (P60900 whole entry): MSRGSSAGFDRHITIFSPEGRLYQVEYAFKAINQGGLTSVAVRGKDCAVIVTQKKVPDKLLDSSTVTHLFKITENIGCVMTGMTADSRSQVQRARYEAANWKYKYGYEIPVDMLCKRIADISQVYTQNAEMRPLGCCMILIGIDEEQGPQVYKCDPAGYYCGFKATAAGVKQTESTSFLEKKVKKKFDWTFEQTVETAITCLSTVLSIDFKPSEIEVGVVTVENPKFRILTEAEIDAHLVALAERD

| SMILES | fold changes relative to vehicle control ([1]; protein PDHX, HeLa) | fold changes relative to vehicle control ([2]; HeLa, protein ATP5A1) | fold changes relative to vehicle control [3, 10] [fold] | fold changes relative to vehicle control ([4]; protein PSMB3, HeLa) | fold changes relative to vehicle control ([5]; protein ACTB, HeLa) | fold changes relative to vehicle control ([6]; protein PSMA6, HeLa) | fold changes relative to vehicle control ([7]; protein CTTN, HeLa) | fold changes relative to vehicle control [8, 11] [fold] | fold changes relative to vehicle control ([9]; HeLa, protein KLHL21) | fold changes relative to vehicle control ([2]; HeLa, captured protein ATP5A1) | fold changes relative to vehicle control ([3]; protein TALDO1, HeLa) | fold changes relative to vehicle control ([4]; HeLa, protein PSMB3) | fold changes relative to vehicle control ([5]; HeLa, protein ACTB) | fold changes relative to vehicle control ([6]; HeLa, protein PSMA6) | fold changes relative to vehicle control ([7]; HeLa, captured protein CTTN) | fold changes relative to vehicle control ([8]; HeLa, captured protein DJ-1) | also measured |
| --- | --- | --- | --- | --- | --- | --- | --- | --- | --- | --- | --- | --- | --- | --- | --- | --- | --- |
| Nc1nc2cccc(-c3ccccc3)c2n1Cc1ccc(Cl)c(Cl)c1 [compound 3] | 1.12 | 0.87 | 0.83 | 0.92 | 1.07 | 1.02 | 0.94 | 0.85 | 1.04 | – | – | – | – | – | – | – | – |
| CCCCCCOc1ccc(Cc2cnc(N)nc2N)cc1 [compound 1] | 1 | 1 | 1.32 | 1.13 | 1.25 | 1.1 | 1.04 | 1.34 | 1.06 | – | – | – | – | – | – | – | – |
| NCCCNc1ccc(C(=O)NC(CCC(=O)O)C(=O)O)cc1 (stereo not drawn) [compound 7] | – | – | – | – | – | – | – | – | 0.97 | 0.99 | 0.92 | 0.92 | 1.04 | 1 | 0.96 | 1.06 | fold changes relative to vehicle control [1, 12]: 1.02 |
| CCCCCCOc1cccc(Cc2cnc(N)nc2N)c1 [compound 2] | 0.43 | 0.97 | 2.2 | 1.53 | 1.5 | 1.27 | 1.18 | 2.24 | 1.01 | – | – | – | – | – | – | – | – |
| NCCOCCOCC(=O)Nc1nc2ncc(CNc3ccc(C(=O)NC(CCC(=O)O)C(=O)O)cc3)nc2c(=O)[nH]1 (stereo not drawn) [compound 6] | – | – | – | – | – | – | – | – | 1 | 0.95 | 1.22 | 1.12 | 1.39 | 1 | 1.06 | 1.36 | fold changes relative to vehicle control ([1]; HeLa, protein PDHX (PYRUVATE DEHYDROGENASE PROTEIN X COMPONENT, MITOCHONDRIAL PRECURSOR)): 0.92 |
| Nc1nc2[nH]cc(CCc3ccc(C(=O)N[C@@H](CCC(=O)O)C(=O)O)cc3)c2c(=O)[nH]1 [PTX, pemetrexed] | – | – | – | – | – | – | – | – | – | – | – | – | – | – | – | – | fold changes relative to vehicle control [1]: 0.98; fold changes relative to vehicle control [2]: 0.94; fold changes relative to vehicle control [3]: 1.04; fold changes relative to vehicle control [4]: 0.99; fold changes relative to vehicle control [5]: 1.18; fold changes relative to vehicle control [6]: 1; fold changes relative to vehicle control [7]: 0.97; fold changes relative to vehicle control [8]: 1.28; fold changes relative to vehicle control [9]: 0.95 |
| Nc1nc2c(c(=O)[nH]1)N(C=O)C(CNc1ccc(C(=O)N[C@@H](CCC(=O)O)C(=O)O)cc1)CN2 (stereo partly drawn) [LEU, leucovorin] | – | – | – | – | – | – | – | – | 1.02 | 0.99 | 0.88 | 1.13 | 1.13 | 1.02 | 0.99 | 1.1 | fold changes relative to vehicle control [1, 12]: 1.05 |
